Reference: US20080139596A1, “Modulators of Hcv Replication” (priority 2004, published 2008)

Columns and labels:
[1] = system: wt Con1 replicon; format: cell-based; conditions: 8 μM; 4 days of incubation; wt Con1 replicon in 10A-IFN cells
[2] = system: Con1 replicon carrying the adaptive mutation A2199T (AT); format: cell-based, Hepatitis C virus; conditions: AT replicon (high amounts of hyperphosphorylated NS5A); 10A-IFN cells; 4 days; Cell-ELISA; read-out: IC50, inhibition of HCV replication
[3] = system: hyperphosphorylated NS5A (p58) in HB68 cells; experiment: NS5A hyperphosphorylation assay (radiolabelling, immunoprecipitation, SDS-PAGE); format: cell-based, Hepatitis C virus; conditions: 5 μM; for formation of the hyperphosphorylated form of NS5A (p58) / NS5A phosphorylation: 35S-methionine or 32P-orthophosphate labelling
Protocol: The presence of hyperphosphorylated NS5A (p58) was evaluated in Huh7-HB68 cells. Proteins were labeled either with ^35S-methionine (lanes 2-5) or with ^32P-orthophosphate (lanes 7-10) in the presence of DMSO (lanes 2 and 7) or with 5 μM of Compound (1) (lanes 3 and 8), Compound (2) (lanes 4 and 9) or SB203580 (lanes 5 and 10). After the radiolabelling, protein extract was prepared, NS5A was immunoprecipitated and proteins were loaded on a 7.5% SDS-PAGE and autoradiographed. The sizes of molecular weight marker proteins are indicated in lanes 1 and 6.
Inhibition of NS5A hyperphosphorylation in intact cells was measured by determining the amount of hyperphosphorylated NS5A (p58) in cells expressing HCV NS5A in the context of a polyprotein comprising at least NS3, NS4A, NS4B, and NS5A (Neddermann et al., J Virol 73, 9984-9991, 1999). […] HBI10 and HB68 are Huh-7 derived-cell lines described in WO2002/059321.
Hyperphosphorylated NS5A was detected as a protein that i) migrates with an apparent molecular weight of about 58 kDa in SDS PAGE, and ii) is immunoreactive with anti-NS5A antibodies. Thus, the amount of hyperphosphorylated NS5A was detected by immunoprecipitation of radioactively labeled proteins.
HBI10 or HB68 were cultured in Dulbecco's modified Eagle medium (DMEM) supplemented with 10% fetal bovine serum (FBS) in the presence of 0.8 mg/ml of G418 (Geneticin; Gibco/BRL). For starvation prior to radioactive protein labeling, minimal essential medium without methionine (Gibco/BRL) was used. For protein labeling, 100 μCi/ml of ^35S-labelled methionine (Promix, Amersham, Cat. No. SJQ0079, 1000 Ci/mmole) was added to the cells.
• 1. HBI10 or HB68 cells were grown to 80% confluency in 6-well plates. • 2. Compound to be tested, dissolved in DMSO at 100× concentration, was added to each well. • 3. One hour later, the medium was removed and replaced with Minimal Essential Medium without methionine. This step is omitted in the case of 32P-orthophosphate labeling. • 4. Compound to be tested, dissolved in DMSO at 100× concentration, was freshly added to each well. • 5. One hour later 100 μCi of ^35S-labelled methionine per ml of Minimal Essential Medium without methionine was added to each well for 35S-metabolic labeling together with the compound to be tested, dissolved in DMSO at 100× concentration. In the case of 32P-labelling, cells were washed once with Dulbecco's modified Eagle's medium without phosphate (ICN) and labeled for 4 hours in the same medium containing 500 μCi/ml of [32P]-orthophosphate (285.5 Ci/mg, NEN) together with the compound to be tested, dissolved in DMSO at 100× concentration. • 6. After 4 hours, cells were harvested from each well and individual cell extracts were prepared in 100 μl of cell lysis buffer. • 7. […]

[4] = system: Con1 replicon carrying the adaptive mutation S2204I (SI); format: cell-based, Hepatitis C virus; conditions: SI replicon (low amounts of hyperphosphorylated NS5A); 10A-IFN cells; 4 days; Cell-ELISA; read-out: IC50, inhibition of HCV replication
[5] = system: wt Con1 replicon; experiment: HCV-specific RNA by real-time reverse transcription PCR (TaqMan) in 10A-IFN cells; format: cell-based, Hepatitis C virus; conditions: 8 μM; 4 days; wt Con1 replicon in 10A-IFN cells; quantitative PCR
Protocol: (§1) RNA was transcribed from the plasmids wt, wt-GAA, m17, SA, m17/SA and m17-GAA and electroporated into 10A-IFN cells. Cells were incubated for four days without or with 8 μM of Compound (1), Compound (2) or SB203580.
(§2) (A) HCV-specific RNA analysis using quantitative RT-PCR. Total cellular RNA was extracted and HCV-specific RNA was quantified as described in Materials and Methods. On the Y-axis is shown the fold-induction with respect to the DMSO control (black bar), Compound (1) (dark grey bar), Compound (2) (light grey bar) or SB203580 (dotted bar). Replicon RNA is indicated at the bottom of the figure.
(§3) Replicon RNA was extracted from selected clones either using the Qiagen RNAeasy minikit following manufacturer instructions or as described by Chomczynski et al., 1987. Anal. Biochem. 162, 156-159. TaqMan analysis was typically performed using 10 ng of RNA in a reaction mix (TaqMan Gold RT-PCR kit, Perkin Elmer Biosystems) either with HCV specific oligos/probe (as disclosed in published International application WO02/059321) or with human beta-actin specific oligos/probe (Pre-Developed TaqMan Assay Reagents, Endogenous Control Human beta-actin, Part Number 4310881E, Applied Biosystems). PCR was performed using a Perkin Elmer ABI PRISM 7700 under the following conditions: 30 minutes at 48° C. (the RT step), 10 minutes at 95° C. and 40 cycles: 15 seconds at 95° C. and 1 minute at 60° C. Quantitative calculations were obtained using the Comparative CT Method (described in User Bulletin #2, ABI PRISM 7700 Sequence Detection System, Applied Biosystem, December 1997) considering the level of GAPDH mRNA constant. All calculations of HCV RNA are expressed as fold difference over a specific control.
(§4) A similar experiment was carried out in order to detect HCV-specific RNA using real-time reverse transcription PCR amplification (FIG. 2A). […] Compound (1) induced replication of wt Con1 replicon 6-fold as measured by quantitative PCR, whereas induction of replication by the other compounds was below background (wt). […]

[6] = system: subgenomic replicons with the synergistic mutation in NS3 (m17); experiment: as above; format: cell-based, Hepatitis C virus; conditions: 8 μM; 4 days; m17 replicon in 10A-IFN cells; quantitative PCR
Protocol: as §1, §2, §3, §4

[7] = system: replicon m17 (E1202G in NS3); format: cell-based; conditions: 8 μM; 4 days of incubation; replicon m17 in 10A-IFN cells
[8] = system: wild type Con1 replicon; experiment: Beta-lactamase gene reporter assay (BLA-assay), replicon electroporated in 10A-IFN cells; format: cell-based, Hepatitis C virus; conditions: 8 μM, added two hours after electroporation, 4 days of incubation
Protocol: The BLA-assay was performed after 4 days of incubation in the presence of the compounds to be tested according to Murray et al., J Virol 77, 2928-35, 2003. Briefly, medium was removed, and cells were stained for 90 min with CCF4-AM (Aurora Biosciences Corp.) in Dulbecco's modified Eagle's medium supplemented with 25 mM HEPES, pH 8.0. For quantitation of the fraction of cells harboring bla replicons, cells were photographed by using a digital charge-coupled device color camera and green and blue cells were counted. Another method for measuring beta-lactamase activity is using a fluorescence plate reader that quantitates the amount of green (530 nm) or blue (460 nm) fluorescence emitted by cells stimulated with light of 405 nm.
A subgenomic replicon was used in which the original neomycin phosphotransferase (neo) gene was replaced by the β-lactamase (bla) gene (WO2003089672 A1 and Murray et al., J Virol 77, 2928-2935, 2003). Cells actively replicating HCV express β-lactamase and show a fluorescent blue staining after incubation with a diffusible β-lactamase substrate (BLA-assay). Replicon RNA was electroporated in 10A-IFN cells and compounds were added at a concentration of 8 μM two hours after electroporation. The BLA-assay was performed after 4 days of incubation in the presence of the compounds to be tested according to Murray et al., J Virol 77, 2928-35, 2003. Briefly, medium was removed, and cells were stained for 90 min with CCF4-AM (Aurora Biosciences Corp.) in Dulbecco's modified Eagle's medium supplemented with 25 mM HEPES, pH 8.0. For quantitation of the fraction of cells harboring bla replicons, cells were photographed by using a digital charge-coupled device color camera and green and blue fluorescent cells were counted. Alternatively, fluorescence was measured by using a CytoFluor 4000 fluorescence plate reader.
The control compound SB203580 had no effect on HCV replication.

Row | Compound | presence of NS5A by immunoblot [1] | IC50 [2] [µM] | formation of the hyperphosphorylated form of NS5A (p58) / NS5A phosphorylation [3] | IC50 [4] [µM] | fold-induction of HCV-RNA with respect to the DMSO control [5] [fold] | fold-induction of HCV-RNA with respect to the DMSO control [6] [fold] | activation of replication (NS5A by immunoblot) [7] | HCV replication (fluorescent blue cells, BLA-assay) [8] | NS5A expression [3]
1 | CNc1nccc(-c2[nH]c(C3CCNCC3)nc2-c2cccc(C(F)(F)F)c2)n1 [Compound (1), N-methyl-4-{2-piperidin-4-yl-4-[3-(trifluoromethyl)phenyl]-1H-imidazol-5-yl}pyrimid-2-amine] | NS5A could be detected | 5 | inhibited the formation of the hyperphosphorylated form of NS5A | 0.5 | 6 | 312 | more potent | resulted in the production of fluorescent blue cells | 
2 | C[S+]([O-])c1ccc(-c2nc(-c3ccncc3)c(-c3ccc(F)cc3)[nH]2)cc1 (stereo not shown) [SB203580, reference compound] | no NS5A was visible |  | no effect |  |  |  |  | no effect | no effect
3 | CN1CCC(c2nc(-c3ccncc3)c(-c3ccc(F)cc3)[nH]2)CC1 [Compound (2), 4-[5-(4-fluorophenyl)-2-(1-methylpiperidin-4-yl)-1H-imidazol-4-yl]pyridine] | no protein was visible | 5 | inhibited the formation of the hyperphosphorylated form of NS5A | 0.5 |  | 58 | less potent activator | resulted in the production of fluorescent blue cells | 
